Source: article PMC10081574, “Evaluation of Antiviral Activity of Gemcitabine Derivatives against Influenza Virus and Severe Acute Respiratory Syndrome Coronavirus 2” (ACS Infectious Diseases, 2023)
Where two headings read alike, the source gives them in different places.

Experiments:
[1] = test system: A/Puerto Rico/8/34 (H1N1); experiment: microbe, parasite or virus in culture; conditions: Influenza A virus, 72 h; for EC50 / EC90: H1N1 / PR8, MDCK; for EC50: read-out: EC50 PR8; for EC90: read-out: EC90 PR8
A/Hong Kong/8/68 (H3N2) [2] = conditions: for SI90 HK: ratio of CC10 to EC90; for SI50 HK: ratio of CC50 to EC50
in vitro = conditions: dog
[3] = test system: influenza A and B viruses; experiment: CPE reduction antiviral assay, values summarised over influenza strains PR8, HK and Lee; format: cell-based, influenza virus
A/Hong Kong/8/68 (H3N2) [4] = experiment: microbe, parasite or virus in culture; conditions: Influenza A virus, H3N2, MDCK, 72 h; for EC50: read-out: EC50 HK; for EC90: read-out: EC90 HK
MDCK cells [5] = conditions: for CC10: dog, 3 days
[6] = test system: A/Puerto Rico/8/34 (H1N1); conditions: for SI90 PR8: ratio of CC10 to EC90; for SI50 PR8: ratio of CC50 to EC50
B/Lee/40 = experiment: CPE reduction antiviral assay in Lee-infected MDCK cells (MTT); format: cell-based, influenza B virus; conditions: for EC50 / EC90: Influenza B virus, 72 h; for EC50: viability of infected cells to 50%; for EC90: read-out: EC90 Lee; for SI90 Lee: ratio of CC10 to EC90; for SI50 Lee: ratio of CC50 to EC50
SARS-CoV-2 = experiment: Anti-SARS-CoV-2 immunofluorescence assay (anti-S) in Calu-3 cells; format: cell-based; conditions: ratio of CC50 to EC50
[7] = Cytotoxicity to mock-infected MDCK cells (MTT); conditions: dog, mock-infected MDCK cells
MDCK cells [8] = experiment: Cytotoxicity to mock-infected MDCK cells (MTT); conditions: mock-infected MDCK cells, day 3, MTT; concentration inhibiting cell viability by 10%
[9] = molecular target: polymerase activity of influenza A virus PR8 (Influenza A virus, UniProt P03431); format: cell-based; conditions: 11, 33 and 100 μM, 72 h time course
PR8 virus [10] = format: cell-based, influenza A virus
PR8 virus [11] = format: cell-based, influenza A virus; remark: listed apart in the source
physchem = conditions: aqueous buffer
[12] = over PR8, HK and Lee, CC10/EC90
[13] = MDCK, read-out: EC50 Lee, MDCK, MOI 0.001, day 3
[14] = MDCK, MOI 0.001, day 3, viability of infected cells to 90%
[15] = MDCK, MDCK, MOI 0.001, day 3, read-out: EC50 Lee
[16] = Influenza A virus, PR8, MDCK, span over PR8, HK and Lee, MDCK, read-out: EC90 against influenza viruses

SMILES	EC50 [1]	EC90 [1]	SI90 HK (A/Hong Kong/8/68 (H3N2) [2])	SI50 HK (A/Hong Kong/8/68 (H3N2) [2])	CC50 at 3 days (in vitro)	SI90 against influenza viruses [3, 12]	EC50 (A/Hong Kong/8/68 (H3N2) [4])	EC90 (A/Hong Kong/8/68 (H3N2) [4])	CC10 (MDCK cells [5])	SI90 PR8 [6]	EC50 (B/Lee/40; [13])	EC90 (B/Lee/40; MDCK)	SI90 Lee (B/Lee/40)	SI50 Lee (B/Lee/40)	SI50 PR8 [6]	EC50 (B/Lee/40; [15])	other results
O=C(Nc1ccn([C@@H]2O[C@H](CO)[C@@H](O)C2(F)F)c(=O)n1)c1ccc([N+](=O)[O-])cn1 [Compound 2i]	1.1 µM	2.2 ± 0.2 µM	15.7	> 518.5	> 300 µM	> 1.4	0.6 ± 0.1 µM	1.1 µM	17.9 ± 6.7 µM	8.1	0.7 µM	1.6 ± 0.1 µM	11.0	> 464.8			
CCC(CC)COC(=O)[C@H](C)N[P@](=O)(OC[C@H]1O[C@@](C#N)(c2ccc3c(N)ncnn23)[C@H](O)[C@@H]1O)Oc1ccccc1 [Remdesivir, reference compound]																	SI SARS-CoV-2 (SARS-CoV-2): > 129.0
NC(=O)c1ncn([C@@H]2O[C@H](CO)[C@@H](O)[C@H]2O)n1 [Ribavirin, reference compound]	20.1 µM	79.4 µM					20.4 µM	59.5 µM			11.1 ± 0.1 µM	141 ± 18.3 µM					CC50 at 3 days [7]: > 300 µM
NC12CC3CC(CC(C3)C1)C2 [Amantadine, reference compound]				> 19.5			15.4 ± 5.1 µM										CC50 at 3 days [7]: > 300 µM; CC10 (MDCK cells [8]): 91.0 ± 34.5 µM
O=C(Nc1ccn([C@@H]2O[C@H](CO)[C@@H](O)C2(F)F)c(=O)n1)c1ccc(-c2ccccc2)cn1 [Compound 2d]	46.1 ± 3 µM	119 ± 66.2 µM	> 1.4	> 6.0	> 300 µM	> 1.4	50.2 ± 3.4 µM	219 ± 36.3 µM	>300.0 µM		39.1 ± 3.2 µM			> 7.7	> 6.5		
COc1ccc(C(=O)Nc2ccn([C@@H]3O[C@H](CO)[C@@H](O)C3(F)F)c(=O)n2)nc1 [Compound 2g]	28.5 ± 4.2 µM	68.8 ± 22.7 µM	> 9.3	> 16.1	> 300 µM	> 1.4	18.6 ± 0.1 µM	32.3 ± 0.7 µM	>300.0 µM	> 4.4			> 3.1	> 22.6	> 10.5	13.3 ± 2.7 µM	EC90 (B/Lee/40; [14]): 98.1 ± 16.7 µM
Cc1cccnc1C(=O)Nc1ccn([C@@H]2O[C@H](CO)[C@@H](O)C2(F)F)c(=O)n1 [Compound 2c]	32.8 ± 5.8 µM	114 ± 24.7 µM	> 7.3	> 11.2	> 300 µM	> 1.4	26.8 µM	41.2 ± 0.5 µM	>300.0 µM	> 2.6				> 11.5	> 9.2	26.2 ± 2 µM	
O=C(Nc1ccn([C@@H]2O[C@H](CO)[C@@H](O)C2(F)F)c(=O)n1)c1cccnc1 [Compound 3a]	5.8 ± 0.9 µM	16.9 ± 7.2 µM	4.2	> 48.4	> 300 µM		6.2 ± 1.1 µM	10.6 ± 0.8 µM		2.7				> 95.7	> 52.1	3.1 ± 0.5 µM	viability at 10 µM ([1]; H1N1|PR8, MDCK, read-out: viability of PR8-infected cells in library screening): > 50%; EC90 [3, 16]: 1.4 to 16.9 µM; EC90 ([3]; Influenza A virus, PR8, PR8 and HK only, read-out: EC90 against influenza A viruses): 10.6 to 16.9 µM; EC50 ([3]; Influenza A virus, span over PR8, HK and Lee, MDCK, read-out: EC50 against influenza viruses): 3.1 to 6.2 µM; SI90 against influenza A viruses ([3]; PR8 and HK only, CC10/EC90): 2.7–4.2; concentration of maximal antiviral efficacy ([3]; dose-response, MDCK): ~33 µM; SI50 against influenza viruses ([3]; over PR8, HK and Lee, CC50/EC50): > 48.4; viability at 10 µM (A/Hong Kong/8/68 (H3N2) [4]; read-out: viability of HK-infected cells in library screening): > 50%; reduction of cytotoxicity relative to gemcitabine (MDCK cells [5]): ninefold; activity against influenza B virus by EC90/SI90 criteria (B/Lee/40; MDCK, 90% viability criteria): not against influenza B virus
O=C(Nc1ccn([C@@H]2O[C@H](CO)[C@@H](O)C2(F)F)c(=O)n1)c1cccc(-c2ccccc2)n1 [Compound 2e]	4.1 ± 0.4 µM	16.6 ± 8.6 µM	> 20.7		> 300 µM	> 8.7	5 ± 0.1 µM	14.5 ± 0.4 µM		> 18.1	3.39 ± 0.1 µM	34.3 ± 4.3 µM	> 8.7	> 88.5	> 73.3		inhibition of viral polymerase activity (EGFP expression) [9]: Inhibition of influenza A viral polymerase activity; reduction of viral NP protein expression (PR8 virus [10]): in a dose-dependent manner; reduction of viral RNA copies (PR8 virus [11]): in a dose-dependent manner; viability at 3 days, 300 µM (in vitro): > 90%; EC90 [3, 16]: 10.7 to 34.3 µM; EC90 ([3]; span over PR8, HK and Lee, MDCK, read-out: EC90 against influenza viruses): 14.5 to 34.3 µM; solubility (physchem): < 500 µg/mL
Cc1ccc(C(=O)Nc2ccn([C@@H]3O[C@H](CO)[C@@H](O)C3(F)F)c(=O)n2)nc1 [Compound 2b]	13.4 ± 0.9 µM	25.3 ± 1.3 µM	1.8	> 5.8	> 300 µM	> 1.4	51.8 ± 42.6 µM	117 ± 18.5 µM	209.2 ± 61.7 µM	8.3			4.8	> 37.3	> 22.4	8.1 ± 0.7 µM	EC90 (B/Lee/40; [14]): 43.8 ± 24.4 µM
